Experimental data as given in patent US12708606B2 (UNIVERSITY OF GEORGIA RESEARCH FOUNDATION, INC., priority 2018, dated 2026).

Assays:
COX-2 = experiment: qRT-PCR of COX-2 in IL-1β stimulated chondrocytes; format: cell-based, rat; conditions: compared to IL-1β-stimulated cells
Protocol: (§1) Cells were divided into nine groups: (1) Control: chondrocytes treated with SLFNP; (2) IL-1β: chondrocytes treated with 10 ng/mL IL-1β (Gibco, USA) and cultured for 2 days; (3) LiCl+IL-1β: chondrocytes pre-incubated with LiCl for 1 h followed by treatment with 10 ng/mL IL-1β for 2 days; (4) 1 mM SLFNP+IL-1β: chondrocytes pre-incubated with 1 mM SLFNP for 1 h followed by treatment with IL-1β for 2 days; (5) 5 mM SLFNP+IL-1β: chondrocytes pre-incubated with 5 mM SLFNP for 1 h followed by treatment with IL-1β for 2 days; (6) HA+IL-1β: condrocytes pre-incubated with 10 mg/mL HA for 1 h followed by treatment with IL-1β for 2 days; (7) HA+LiCl+IL-1β: chondrocytes pre-incubated with 10 mM LiCl and HA for 1 h followed by treatment with IL-1β for 2 days; (8) HA+1 mM SLFNP+IL-1β: chondrocytes pre-incubated with 1 mM SLFNP and HA for 1 h followed by treatment with IL-1β for 2 days; (9) HA+5 mM SLFNP+IL-1β: chondrocytes pre-incubated with 5 mM SLFNP and HA for 1 h followed by treatment with IL-1β for 2 days.
(§2) RNA was isolated from chondrocytes in all groups after 2 days of treatment using an RNA isolation kit (Tiangen Biotechnology). […]

ADAMTS5 = experiment: qRT-PCR of ADAMTS5 in IL-1β stimulated chondrocytes; format: cell-based, rat; conditions: compared to IL-1β-stimulated cells
Protocol: as §1, §2

MMP-13 = experiment: Immunofluorescence staining of MMP-13 in IL-1β stimulated chondrocytes; format: cell-based, rat; conditions: pre-incubation before IL-1β 10 ng/mL
Protocol: as §1
After 2 days of culture, cells in the different treatment groups were washed twice with PBS, fixed in 4% formalin for 20 min, and permeabilized with 0.3% Triton X-100 (WN) in PBS for 10 min. After blocking with 5% BSA in PBS for 1 hour at room temperature, primary MMP-13 antibodies were added (1:200 dilution, Abcam, USA) and incubated at 4° C. overnight. […]

[1] = tested on: IL-1β induced chondrocytes; experiment: Chondroprotective effect: CCK-8 viability of IL-1β induced chondrocytes; format: cell-based, rat; conditions: LiCl 10 mM, IL-1β 10 ng/mL, 48 h
Protocol: The capacity of SLFNP was assessed to protect chondrocytes from deterioration induced by inflammatory cytokines. Chondrocytes were first incubated with SLFNP and then added to the medium 10 ng/mL interleukin-1-beta (IL-1β), a major inflammatory cytokine involved in chronic OA. For comparison, chondrocytes were treated with PBS or LiCl salt (10 mM) before adding IL-1β. In the PBS group, CCK-8 assay found a marked drop of cell viability (37.64% at 48 h). […]

[2] = tested on: Sprague-Dawley rats with surgery-induced OA; experiment: Histological evaluation (H&E, Safranin O-fast green, OARSI score) in rat ACLT OA model; format: in vivo
Protocol: Sprague Dawley Rats (SD rats) were obtained from Guangxi Medical University. All experiments were conducted in accordance with the guidelines of the Animal Committee and with ethics approval from the Guangxi Medical University Animal Care and Use Committee, China (Protocol Number: 2015-11-27). A total of 152 male SD rats with a weight of 180±20 g were used. After anesthesia, 144 randomly selected rats underwent bilateral anterior cruciate ligament transection (ACLT) on the right knee joints to induce OA. Another 8 rats received sham operations (Sham group), in which the articular cavity was opened and sutured with the short anterior cruciate ligament intact. After surgery, all animals were returned to their cages, with the limbs not immobilized. One month after the surgery, the animals were randomly sorted into […] groups (n=24) and were i.a. injected once per week with the following regimens for 8 weeks: SLFNP+HA (1.74 μg Li in 50 μL 10 mg/mL HA), SLFNP alone (1.74 μg Li in […] PBS), LiCl+HA (3.48 μg Li in 50 μL 10 mg/mL HA), LiCl alone (3.48 μg in 50 μL PBS), HA alone (50 μL), and PBS (50 μL). In the sham groups, no other procedures were conducted. The animals in the six groups were sacrificed at 4 and 8 weeks after therapy (n=12). […]

iNOS = experiment: qRT-PCR of iNOS in IL-1β stimulated chondrocytes; format: cell-based, rat; conditions: compared to IL-1β-stimulated cells
Protocol: as §1, §2

MMP3 = experiment: qRT-PCR of MMP3 in IL-1β stimulated chondrocytes; format: cell-based, rat; conditions: compared to IL-1β-stimulated cells
Protocol: as §1, §2

IL6 = experiment: qRT-PCR of IL6 in IL-1β stimulated chondrocytes; format: cell-based, rat; conditions: compared to IL-1β-stimulated cells
Protocol: as §1, §2

[3] = tested on: Sprague-Dawley rats with surgery-induced OA; experiment: Macroscopic evaluation of cartilage lesions in rat ACLT OA model; format: in vivo
Protocol: In vivo analysis was performed in Sprague-Dawley rats which had undergone bilateral anterior cruciate ligament transection (ACTL) surgery. One month after the surgery, the animals were randomly sorted into six groups (n=24) and were i.a. injected once per week with the following regimens: SLFNP+HA (1.74 μg Li in 50 μL HA), SLFNP alone (1.74 μg Li in 50 μL PBS), LiCl+HA (3.48 μg Li in 50 μL HA), LiCl alone (3.48 μg in 50 μL PBS), HA alone (50 μL), and PBS (50 μL). For control, a sham-operated group was also studied.
Sprague Dawley Rats (SD rats) were obtained from Guangxi Medical University. […]
After 4 and 8 weeks of treatment, SD rats were sacrificed by intraperitoneal overdose of pentobarbital. […] The observers evaluated the depth of lesions of the articular cartilage on a scale of 0-4 (0=normal-appearing surface, 1=minimal fibrillation or a slight yellow discoloration of the surface, 2=erosion extending into the superficial or middle layers only, 3=erosion extending into the deep layers, and 4=erosion extending to the subchondral bone). The surface area of erosion was calculated with a digital caliper and presented them as mm2, with a higher score indicating greater cartilage damage.

[4] = tested on: IL-1β induced chondrocytes; experiment: Live/dead assay of IL-1β induced chondrocytes; format: cell-based, rat; conditions: vs PBS group, IL-1β 10 ng/mL
Protocol: as §1
Cells were treated as the same procedures as described above. Live/dead assays were performed using a live/dead viability assay kit (Invitrogen, USA) after 2 days of culture. Briefly, cells were incubated in a solution containing […] of calcein AM and […] of ethidium homodimer-1 for 40 min at room temperature in the dark. […]

[5] = cited from earlier work
[6] = in vivo; cited from earlier work

## [Cl-].[Li+] [LiCl, lithium chloride]
COX-2
  reduction of mRNA level of COX-2: 68.29%
ADAMTS5
  reduction of mRNA level of ADAMTSS: 59.77%
MMP-13
  MMP13 expression (immunofluorescence): upregulation was attenuated
[1]
  cell viability: 80.77%
[2]; Week 4
  reduction of OARSI score compared to the PBS control: 19.28%
[2]; Week 8
  reduction of OARSI score compared to the PBS control: 11.95%
iNOS
  reduction of mRNA level of iNOS: 57.66%
MMP3
  reduction of mRNA level of MMP3: 57.45%
IL6
  reduction of mRNA level of IL6: 54.94%
[3]; Week 4, i.a. once per week
  average lesion area: 8.5 mm2
[3]; Week 8, i.a. once per week
  average lesion area: 10.2 mm2
[4]
  positive ethidium homodimer-1 staining: significantly reduced level of positive staining

## [Li] [lithium]
[5]
  serum lithium toxicity threshold: 1.5 mM

## hyaluronic acid [HA]
[6]
  time for i.a. injected HA to fully degrade in the joint: ~ 60 h
